Measured values taken from patent US10028992B2, “Methods of treating muscular dystrophy” (BOARD OF REGENTS OF THE NEVADA SYSTEM OF HIGHER EDUCATION …, priority 2012, dated 2018).
Read-outs that look alike come from different tables or passages of the source.

Test system: α7 integrin promoter
Assay: muscle cell-based assay: α7βgal+/− myoblasts/myotubes, LacZ reporter, β-galactosidase cleavage of FDG
Parameters: species or system mouse
Conditions: for EC50: Mus musculus, read-out: Fit LogAC50 (converted)
Procedure: An α7 integrin null mouse was produced in which exon 1 of the gene encoding the α7 integrin was replaced by the LacZ reporter. In these mice, all the transcriptional regulatory elements of the α7 integrin promoter were retained, allowing β-galactosidase to report expression of 7 integrin. A primary myoblast cell line (designated α7βgal^+/−) isolated from 10 day old α7^+/− pups were analyzed for the ability of β-galactosidase to report α7 integrin expression. α7βgal^+/− myoblasts were differentiated and subjected to X-gal staining and western analysis (FIGS. 1A and 1B).
The activity of the α7 integrin promoter was measured by β-galactosidase cleavage of the non-fluorescent compound fluorescein di-β-D-galactopyranoside (FDG) to fluorescein. This assay was used to screen compound libraries to identify molecules that up-regulate α7 integrin expression in muscle.
Also evaluated was the effect of various isoforms of laminin and the ligand for α7β1 integrin on integrin expression. Positive hits were subjected to dose-response analysis, western analysis and a myostatin counterscreen (a negative regulator of muscle growth).

[1] = given as log AC50 (negative values)
[2] = curve class number, key not given
[3] = curve fit, activity at zero concentration

Compound	EC50 [1] [µM]	Score (Table 12 compound data)	Fit Curve Class [2]	Fit HillSlope (curve fit)	Fit Zero Activity [%] [3] [%]	Fit Curve Class	Fit HillSlope	Fit Zero Activity [%]	Score	EC50 [µM]	Fit Infinite Activity [%] (curve fit, activity at infinite concentration)	Fit LogAC50 [1]
COc1ccc(O)c(/C=N/NC(=O)c2cc(O)nc3ccccc23)c1 [Compound 179]	5.62	42	2.1	2.2526	−35.6913							
CCOc1ccc(NC(=O)CN2C(=O)NC(CCSC)C2=O)cc1 (stereo not drawn) [Compound 180]	10	42	2.2	3.1925	−1.6238							
Br.COc1ccc(C(=O)CN2CCCCC2)cc1 [Compound 181]						2.1	4.9549	12.5	42	12.6		
CNP(=O)(Oc1ccccc1)OC12CC3CC(CC(C3)C1)C2 (stereo not drawn) [Compound 182]						2.1	2.2481	−0.8571	42	10		
O=C(CCc1ccccc1)c1nnc(-c2ccccc2)o1 [Compound 183]	10	42	2.1	4.4495	1.0471							
COc1ccc(CNC(=O)COC(=O)CCc2c[nH]c3ccccc23)cc1 [Compound 184]	10	42	2.1	2.9023	−0.6011							
COc1ccccc1OCC(=O)N/N=C1/C=C(C)CC1 [Compound 185]	10	42	2.1	4.9549	−23.4705							
CC(C(=O)Nc1ccc(C#N)cc1)N(C)CC(=O)Nc1cccc(F)c1 (stereo not drawn) [Compound 186]	3.98	42	2.1	0.9	−45.5302							
COC(=O)C1SCC2C(=O)N(Cc3ccc(F)cc3)CC(=O)N21 (stereo not drawn) [Compound 187]	8.91	42	2.1	1.3437	−54.3669							
COc1ccc(-c2cc(COc3ccccc3)on2)cc1 [Compound 188]	10	42	2.1	4.5045	0.195							
Sc1nnc(Cn2cnc3ccccc32)n1-c1ccccc1 [Compound 189]	8.91	42	2.2	0.8	8.5392							
CN(C#N)c1nccc(-c2cccs2)n1 [Compound 190]	11.2	42	2.1	2.0937	−28.9068							
O=Cc1cnc(N2CCCCC2)s1 [Compound 191]	11.2	42	2.1	4.9549	−19.3188							
Nc1nccc(-c2ccc(-n3cnc4ccccc43)cc2)n1 [Compound 192]	11.2	42	2.2	4.095	2.4789							
COc1cc2c(cc1OC)C(NC(=O)C(F)(F)F)C/C2=N\O (stereo not drawn) [Compound 193]	11.2	42	2.1	4.095	2.547							
COc1ccc(N2CCN(CCC3Oc4cc([N+](=O)[O-])ccc4NC3=O)CC2)cc1 (stereo not drawn) [Compound 194]		42	2.2	1.7137	−2.9581						73.9084	−5.05

Compound	EC50 [1] [µM]	Score (Table 12 compound data)	Fit Curve Class [2]	Fit HillSlope (curve fit)	Fit Zero Activity [%] [3] [%]	Fit Curve Class	Fit HillSlope	Fit Zero Activity [%]	Score	EC50 [µM]	Fit Infinite Activity [%] (curve fit, activity at infinite concentration)	Fit LogAC50 [1]
N#Cc1ccc(OCC(O)CS(=O)(=O)c2ccccc2)cc1 (stereo not drawn) [Compound 195]	10	42	2.1	4.045	−9.8792							
Cc1ccccc1C(=O)Nc1nnc(SC(C)C)s1 [Compound 196]	10	42	2.2	2.8473	−0.5091							
CC(=O)c1cccc(NC(=O)C(=O)Nc2cccc3ccccc23)c1 [Compound 197]	8.91	42	2.2	0.9	1.5							
Cc1cc(C)nc(NC(=O)c2ccc(Cl)cc2Cl)n1 [Compound 198]	10	42	2.2	4.9549	1.0914							
CC(C)N(CCO)C(=O)CCc1nnc(CCCc2ccccc2)o1 [Compound 199]	12.6	42	2.2	1.2876	0.1862							
c1ccc(CN2CCCC3(CCCN(Cc4nc(CC5CC5)no4)C3)C2)cc1 (stereo not drawn) [Compound 200]	8.91	42	2.1	1.4781	−42.0662							
Cn1c(=O)c2c(nc(Sc3ncnn3CC(=O)NC3CCCCC3)n2C)n(C)c1=O [Compound 201]	11.2	42	2.1	2.3531	−19.8816							
NS(=O)(=O)c1ccc(NC(=O)Nc2ccc(Cl)cc2)cc1 [Compound 202]						2.2	1.8617					
CC1=C(C#N)C(=O)N(C)C(=O)/C1=C\NNc1ccc(F)cc1 [Compound 203]	7.08	42	2.1	1.4781	−47.2995							
CCS(=O)(=O)N1CCN(c2ccc([N+](=O)[O-])c(NCC3CCCO3)c2)CC1 (stereo not drawn) [Compound 204]	10	42	2.2	3.5722	0.4864							
O=C(NC(=S)NCCC1=CCCCC1)c1ccc(Br)o1 [Compound 205]	7.08	42	2.1	1.4781	−40.2978							
CCCC(=O)Nc1ccccc1NC(=O)c1ccc(OCC)cc1 [Compound 206]	11.2	42	2.1	4.095	13.9528							
NS(=O)(=O)c1ccc(NC(=O)c2ccc(CNS(=O)(=O)c3cc(C(F)(F)F)ccc3Cl)cc2)cc1 [Compound 207]	10	42	2.2	2.5334	0.1699							
COc1ccc(CN2CCNC(=O)C2CC(=O)NCCc2c[nH]c3ccccc23)c(OC)c1 (stereo not drawn) [Compound 208]	10	42	2.2	3.1925	−9.1413							
O=Cc1cn(Cc2ccc(F)cc2Cl)c2ccccc12 [Compound 209]						2.1	4.095	12.1779	42	15.8		
